Usually clearance stands for the volume of plasma or blood freed of the substance per unit of time.

This is an account of results in patent publication US20110038936A1, “SYSTEM AND METHOD FOR ELECTROSPUN DRUG LOADED BIODEGRADABLE CHEMOTHERAPY APPLICATIONS” (priority 2009, published 2011).

For data set [1] the following is noted: cited from earlier work.
The nature of data set [2]: Capacity of drug loading of the electrospun polymer device. The format is physicochemical. Particulars: larger quantities cause supersaturation of the solution.
From the text: With time, the solvent would evaporate leaving a crystallized non-homogenous mixture of polymer and drug.
The conditions of data set [3]: in vivo; cited from earlier work.
The conditions of data set [4]: intravenous infusion, doses 30 to 170 mg/m^2; cited from earlier work.

Values after ≈ are worked out from the molar mass of the structure shown.

For `COc1ccccc1OCC(O)CO` (racemic) [Guaifenesin, (2RS)-3-(2-Methoxyphenoxy)propane-1,2-diol], in data set [1], the water solubility is listed as 50 mg/mL (≈ 252 mM). For the same compound, the “maximum amount of drug loaded in the electrospun polymer device” value in data set [2] turned out to be 5 wt %. Moreover, the half-life entry in data set [3] is listed as “approximately 1 hour”.

As for `O=NN(CCCl)C(=O)NCCCl` [BCNU], in data set [4], the average terminal half-life was 22 min, the clearance was 56 mL/min/kg and the “steady-state volume of distribution” value is 3.25 L/kg.

In the case of `C[C@]12CC[C@@H]3c4ccc(O)cc4CC[C@H]3[C@@H]1CC[C@@H]2O` [Beta-Estradiol, 17β-estradiol], the “maximum amount of drug loaded in the electrospun polymer device” value in data set [2] was 1 wt %.
